The text below walks through data of PubChem BioAssay (NCI).

Test systems include RPMI-8226 leukemia; SK-MEL-5 melanoma; CCRF-CEM leukemia; HOP-62 NSCLC; UACC-257 melanoma; LOX IMVI melanoma; 786-0 renal; MDA-MB-435; HL-60(TB) leukemia; KM12 colon; SN12C renal; SNB-75 CNS; BT-549 breast; SR leukemia; HT29 colon; EKVX NSCLC; MCF7 breast; SK-MEL-28 melanoma; HCC-2998 colon; NCI-H460 lung.
Common to all, as to test: DTP human tumour cell line panel, 48 h

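1) Cells in 96-well plates. 2) Compound, 48 h, 5 concentrations. 3) Linear interpolation between surrounding doses. 4) Unreached endpoint = highest concentration. TGI: total growth inhibition.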

One may read the TGI as the concentration giving total growth inhibition. Higher therefore signals less potent growth arrest.

Take `CC1=C2C3=C(C)C(=O)C(C)(C)CC[C@@]3(C)[C@]2(C)CCC(C)(C)C1=O`: the total growth inhibition concentration (TGI) in the experiment with RPMI-8226 leukemia, in the experiment on SK-MEL-5 melanoma, in the experiment with CCRF-CEM leukemia, in the experiment on HOP-62 NSCLC, in the experiment on UACC-257 melanoma and in the experiment with LOX IMVI melanoma was over 100 µM each time. Besides, the TGI in the experiment on 786-0 renal, with MDA-MB-435, in the experiment with HL-60(TB) leukemia, in the experiment with KM12 colon, in the experiment on SN12C renal and in the experiment on SNB-75 CNS was over 100 µM throughout. For the same molecule, the TGI with BT-549 breast, in the experiment on SR leukemia, in the experiment with HT29 colon, in the experiment on EKVX NSCLC and in the experiment on MCF7 breast was over 100 µM each time.
Take `CCC1c2[nH]c3ccccc3c2C[C@H]2C(=O)NC(CCC(=O)OC(C)(C)C)C(=O)N12` (stereo partly specified): the TGI is 97.9 µM in the experiment on RPMI-8226 leukemia; over 100 µM in the experiment on SK-MEL-5 melanoma; over 100 µM with HOP-62 NSCLC; over 100 µM in the experiment on UACC-257 melanoma; over 100 µM in the experiment with LOX IMVI melanoma; over 100 µM in the experiment on 786-0 renal. In addition, the TGI with MDA-MB-435, with HL-60(TB) leukemia, in the experiment on KM12 colon, in the experiment on SN12C renal, with BT-549 breast and with SR leukemia was over 100 µM throughout. Moreover, the TGI with HT29 colon, in the experiment with SK-MEL-28 melanoma, with EKVX NSCLC and in the experiment on MCF7 breast was over 100 µM each time.
With `CC(=O)[C@]1(O)Cc2c(O)c3c(c(O)c2C(OC2OC(C)C(O)C(O)C2F)C1)C(=O)c1ccccc1C3=O` (stereo partly specified), the TGI stood at 2.36 µM in the experiment with RPMI-8226 leukemia; 0.68 µM with SK-MEL-5 melanoma; 0.0642 µM in the experiment with CCRF-CEM leukemia; 0.629 µM in the experiment with HOP-62 NSCLC; 2.38 µM in the experiment with UACC-257 melanoma; 11.6 µM in the experiment on LOX IMVI melanoma. The TGI in the experiment with 786-0 renal was over 37.1 µM; in the experiment on MDA-MB-435 it was 1.95 µM; in the experiment with HL-60(TB) leukemia, under 0.0303 µM; in the experiment on KM12 colon it was 5.64 µM; in the experiment with SN12C renal it was 12.4 µM; with SNB-75 CNS it was 0.837 µM. Moreover, the TGI in the experiment with HCC-2998 colon was 2.3 µM; in the experiment on BT-549 breast, 2.44 µM; in the experiment with SK-MEL-28 melanoma, 2.7 µM; with EKVX NSCLC, 14.7 µM; with MCF7 breast, over 45.2 µM.
`Cc1c(Cc2ccccc2)n(COCCCO)c(=O)[nH]c1=O`: the TGI in the experiment with RPMI-8226 leukemia, in the experiment with NCI-H460 lung, in the experiment on SK-MEL-5 melanoma, with CCRF-CEM leukemia, in the experiment with HOP-62 NSCLC and with UACC-257 melanoma was over 100 µM in each case. Besides, the TGI with LOX IMVI melanoma, in the experiment on 786-0 renal, with MDA-MB-435, in the experiment on KM12 colon, in the experiment on SN12C renal and in the experiment with SNB-75 CNS was over 100 µM each time. The TGI with HCC-2998 colon, in the experiment with BT-549 breast, in the experiment on HT29 colon, with SK-MEL-28 melanoma, in the experiment on EKVX NSCLC and in the experiment with MCF7 breast was over 100 µM throughout.
For `CCOC(=O)N/N=C(/N)Cc1ccccc1`, the TGI with NCI-H460 lung, with SK-MEL-5 melanoma, with CCRF-CEM leukemia, with HOP-62 NSCLC, in the experiment on UACC-257 melanoma and with LOX IMVI melanoma was over 100 µM in each case. In addition, the total growth inhibition concentration (TGI) in the experiment with 786-0 renal, with MDA-MB-435, with HL-60(TB) leukemia, in the experiment on KM12 colon, in the experiment with SN12C renal and in the experiment on SNB-75 CNS was over 100 µM throughout. Further, the TGI in the experiment on HCC-2998 colon, in the experiment on BT-549 breast, in the experiment on SR leukemia, in the experiment with SK-MEL-28 melanoma, in the experiment on EKVX NSCLC and in the experiment on MCF7 breast was over 100 µM throughout.
For `C[N+](C)(N)CCC[N+](C)(C)N`, the TGI in the experiment on RPMI-8226 leukemia, in the experiment with NCI-H460 lung, in the experiment on SK-MEL-5 melanoma, with CCRF-CEM leukemia, in the experiment on HOP-62 NSCLC and in the experiment on UACC-257 melanoma was over 100 µM each time. Further, the total growth inhibition concentration (TGI) in the experiment with LOX IMVI melanoma, in the experiment with 786-0 renal, with MDA-MB-435, in the experiment with HL-60(TB) leukemia, in the experiment with KM12 colon and in the experiment on SN12C renal was over 100 µM throughout. In addition, the TGI with SNB-75 CNS, in the experiment on BT-549 breast, with SR leukemia, with HT29 colon, in the experiment on SK-MEL-28 melanoma and with EKVX NSCLC was over 100 µM in each case. Besides, the TGI in the experiment with MCF7 breast is over 100 µM.
As for `CSc1nc(Cl)c2c(n1)Sc1nc3cc4c(cc3n1C2O)OCO4` (stereo unspecified), the TGI in the experiment on RPMI-8226 leukemia was over 20.8 µM; in the experiment with NCI-H460 lung it was over 32 µM; in the experiment with SK-MEL-5 melanoma, 7.49 µM; with CCRF-CEM leukemia, over 100 µM; with HOP-62 NSCLC, 16.7 µM; in the experiment with UACC-257 melanoma it was over 100 µM. In addition, the TGI with LOX IMVI melanoma was 0.746 µM; with 786-0 renal, over 39 µM; in the experiment on MDA-MB-435, over 100 µM; with KM12 colon, over 100 µM; in the experiment with SN12C renal it was 32.4 µM; in the experiment with SNB-75 CNS, over 100 µM. In addition, the TGI in the experiment on HCC-2998 colon was over 60.9 µM; with BT-549 breast, over 31.3 µM; in the experiment with HT29 colon, 7.55 µM; in the experiment on SK-MEL-28 melanoma, over 100 µM; in the experiment on EKVX NSCLC, over 100 µM; with MCF7 breast it was over 100 µM.
For `Cc1ccccc1Nc1cn(COCc2ccccc2)c(=O)[nH]c1=O`, the TGI in the experiment on RPMI-8226 leukemia, in the experiment with NCI-H460 lung, with SK-MEL-5 melanoma, in the experiment with CCRF-CEM leukemia, with HOP-62 NSCLC and in the experiment on UACC-257 melanoma was over 100 µM in each case. Also, the concentration for total growth inhibition (TGI) in the experiment with LOX IMVI melanoma, with 786-0 renal, in the experiment with MDA-MB-435, in the experiment on HL-60(TB) leukemia, in the experiment on KM12 colon and in the experiment with SN12C renal was over 100 µM in each case. Also, the concentration for total growth inhibition (TGI) with HCC-2998 colon is over 100 µM; in the experiment on BT-549 breast, 66.2 µM; in the experiment on HT29 colon, over 100 µM; with SK-MEL-28 melanoma it was over 100 µM; in the experiment with EKVX NSCLC it was over 100 µM; with MCF7 breast, over 100 µM.
